Experimental data: ChEMBL document CHEMBL3352562, “(±)-Quassidines I and J, two pairs of cytotoxic bis-β-carboline alkaloid enantiomers from Picrasma quassioides” (J Nat Prod, 2015)

Legend:
Format in all cases: functional, cell-based
HeLa = assay: Cytotoxicity against human HeLa cells assessed as cell survival after 48 hrs by MTT assay
[1] = Cytotoxicity against human MKN28 cells assessed as cell survival after 48 hrs by MTT assay; conditions: MKN-28, 48 h
B16 = assay: Cytotoxicity against mouse B16 cells assessed as cell survival after 48 hrs by MTT assay; conditions: B16, 48 h

SMILES	IC50 (HeLa) [µM]	IC50 [1] [µM]	IC50 (B16) [µM]
COc1cccc2c1[nH]c1c([C@@H]3CCCc4c5[nH]c6c(O)cccc6c5c(OC)c[n+]43)ncc(OC)c12	4.03	4.91	9.34
COc1cccc2c1[nH]c1c([C@H]3CCCc4c5[nH]c6c(O)cccc6c5c(OC)c[n+]43)ncc(OC)c12	10.9	9.64	14.8
COc1cccc2c1[nH]c1c3[n+](cc(OC)c12)[C@H](c1ncc(OC)c2c1[nH]c1ccccc12)CCC3	5.75	6.3	10.8
COc1cccc2c1[nH]c1c3[n+](cc(OC)c12)[C@@H](c1ncc(OC)c2c1[nH]c1ccccc12)CCC3	10.5	12.3	15.4
O=c1[nH]cc(F)c(=O)[nH]1 [FLUOROURACIL]	13.5	9.67	7.64
